“And” between values parts separate entries of the source, which are not always exact repeats. Equal entries are not always repeated. Values belong to the molecule of their own block, whether it stands above or below them.
Assays:
Type in all cases: biochemical
c-KIT = target: T1, c-KIT (Homo sapiens, UniProt P10721); test: Inhibition of c-KIT, radiometric filter-binding assay; conditions: 700 μM ATP, 0.5 mg/mL pE4Y, room temperature
T1 construct: 0.02% BSA and 25 nM c-KIT
Summary of the method: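 Radiometric filter-binding: 25 nM c-KIT (enzyme in the Solution 2 mix) with poly(Glu,Tyr) 4:1 substrate at 0.5 mg/mL and [γ-^33P]ATP at 700 μM (both final), in HEPES pH 7.5/MgCl2/NaCl/DTT/BSA with 2.5% DMSO. Incubated 20 min at room temperature, stopped with TCA, and ^33P incorporation counted on filters. 12-point titration, final compound typically 0.01-5 μM; IC50 or Ki from curve fit.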

JAK3 = target: T2, JAK3 (Homo sapiens, UniProt P52333); test: JAK3 inhibition assay (ELISA, Poly (Glu, Ala, Tyr) coated plates); conditions: 2 mM ATP, 60 minutes at 30° C.
T2 sequence (P52333 1-1124): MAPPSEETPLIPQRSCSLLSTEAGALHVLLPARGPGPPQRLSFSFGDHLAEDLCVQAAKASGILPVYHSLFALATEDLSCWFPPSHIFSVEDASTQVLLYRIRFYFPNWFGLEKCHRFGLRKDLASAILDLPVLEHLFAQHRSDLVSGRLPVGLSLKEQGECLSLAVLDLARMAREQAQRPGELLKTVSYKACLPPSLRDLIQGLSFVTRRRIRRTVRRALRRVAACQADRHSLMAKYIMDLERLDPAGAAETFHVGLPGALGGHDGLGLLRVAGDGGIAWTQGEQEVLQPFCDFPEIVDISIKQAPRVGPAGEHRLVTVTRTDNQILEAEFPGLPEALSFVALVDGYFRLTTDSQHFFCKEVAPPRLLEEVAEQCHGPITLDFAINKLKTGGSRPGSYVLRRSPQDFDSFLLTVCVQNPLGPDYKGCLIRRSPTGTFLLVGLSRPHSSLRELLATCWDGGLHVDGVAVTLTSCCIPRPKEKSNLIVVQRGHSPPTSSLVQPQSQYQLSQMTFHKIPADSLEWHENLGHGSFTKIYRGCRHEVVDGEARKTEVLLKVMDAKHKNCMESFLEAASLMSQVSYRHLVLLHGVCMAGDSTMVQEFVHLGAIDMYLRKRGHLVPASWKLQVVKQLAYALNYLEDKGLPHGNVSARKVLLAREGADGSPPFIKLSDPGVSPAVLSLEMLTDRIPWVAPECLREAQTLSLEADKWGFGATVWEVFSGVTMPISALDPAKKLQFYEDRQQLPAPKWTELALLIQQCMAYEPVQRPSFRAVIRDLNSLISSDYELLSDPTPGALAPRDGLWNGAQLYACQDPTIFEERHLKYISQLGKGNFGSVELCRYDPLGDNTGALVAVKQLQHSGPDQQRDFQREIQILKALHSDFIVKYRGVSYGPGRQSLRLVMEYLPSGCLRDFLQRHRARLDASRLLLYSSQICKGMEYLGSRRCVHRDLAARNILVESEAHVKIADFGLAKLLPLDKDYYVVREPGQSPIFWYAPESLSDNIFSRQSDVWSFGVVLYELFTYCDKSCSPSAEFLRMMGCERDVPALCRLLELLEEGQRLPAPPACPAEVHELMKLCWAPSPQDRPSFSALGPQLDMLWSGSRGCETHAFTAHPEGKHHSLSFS
Summary of the method: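 ELISA on Poly(Glu,Ala,Tyr) 6:3:1-coated plates with 2 mM ATP and 5 mM MgCl2. JAK enzyme started the reaction, run 60 min at 30° C. Phosphotyrosine was detected with HRP-conjugated 4G10 antibody and TMB, read at 450 nm, and IC50 was derived from optical densities.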

KDR = KDR (Homo sapiens, UniProt P35968); test: KDR enzyme assay, coupled enzyme assay; conditions: 300 μM ATP, 10 μM poly E4Y, 30 nM KDR, 37° C.
Sequence of KDR (P35968 20-1356): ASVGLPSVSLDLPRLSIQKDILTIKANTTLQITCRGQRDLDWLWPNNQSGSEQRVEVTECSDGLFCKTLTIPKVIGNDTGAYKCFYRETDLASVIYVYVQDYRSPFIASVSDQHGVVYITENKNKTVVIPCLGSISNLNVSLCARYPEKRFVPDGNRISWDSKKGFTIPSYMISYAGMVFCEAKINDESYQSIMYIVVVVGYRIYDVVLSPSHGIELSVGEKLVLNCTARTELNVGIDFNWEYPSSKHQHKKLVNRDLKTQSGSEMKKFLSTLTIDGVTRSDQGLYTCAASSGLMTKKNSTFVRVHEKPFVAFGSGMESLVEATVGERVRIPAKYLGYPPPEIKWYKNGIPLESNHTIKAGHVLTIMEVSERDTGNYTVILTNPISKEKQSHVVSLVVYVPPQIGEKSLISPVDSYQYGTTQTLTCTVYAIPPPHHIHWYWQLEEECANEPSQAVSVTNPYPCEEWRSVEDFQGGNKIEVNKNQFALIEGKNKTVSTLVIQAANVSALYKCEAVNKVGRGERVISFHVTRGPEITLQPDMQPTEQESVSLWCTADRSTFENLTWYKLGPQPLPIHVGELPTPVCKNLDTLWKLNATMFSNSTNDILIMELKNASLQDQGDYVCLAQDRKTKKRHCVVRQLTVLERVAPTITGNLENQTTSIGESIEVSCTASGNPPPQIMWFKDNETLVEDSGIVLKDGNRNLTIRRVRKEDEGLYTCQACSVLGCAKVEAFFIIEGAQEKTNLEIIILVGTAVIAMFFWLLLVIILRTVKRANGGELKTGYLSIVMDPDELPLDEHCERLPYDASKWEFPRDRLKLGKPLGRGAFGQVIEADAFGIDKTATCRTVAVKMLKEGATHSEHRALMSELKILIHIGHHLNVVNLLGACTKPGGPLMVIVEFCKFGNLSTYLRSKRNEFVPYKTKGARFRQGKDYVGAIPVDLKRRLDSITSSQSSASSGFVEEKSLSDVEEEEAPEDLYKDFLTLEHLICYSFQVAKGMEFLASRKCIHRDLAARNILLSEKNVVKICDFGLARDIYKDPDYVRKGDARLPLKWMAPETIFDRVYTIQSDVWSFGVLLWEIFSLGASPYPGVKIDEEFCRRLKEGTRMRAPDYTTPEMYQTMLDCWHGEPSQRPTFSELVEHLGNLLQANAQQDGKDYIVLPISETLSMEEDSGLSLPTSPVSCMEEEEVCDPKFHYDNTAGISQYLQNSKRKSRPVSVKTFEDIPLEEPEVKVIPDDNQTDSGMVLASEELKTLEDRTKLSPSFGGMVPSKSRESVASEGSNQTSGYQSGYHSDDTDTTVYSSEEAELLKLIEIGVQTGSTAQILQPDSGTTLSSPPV
Summary of the method: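 Coupled enzyme (PK/LDH, NADH) assay with 30 nM KDR in 200 mM HEPES 7.5, 10 mM MgCl2, 25 mM NaCl, 1 mM DTT, 1.5% DMSO; 300 μM ATP, 10 μM poly E4Y. Compound at 30 μM final, preincubated ~10 min at 37 °C before ATP start; rates read over 5 min at 37 °C.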

T1 sequence (P10721 26-976): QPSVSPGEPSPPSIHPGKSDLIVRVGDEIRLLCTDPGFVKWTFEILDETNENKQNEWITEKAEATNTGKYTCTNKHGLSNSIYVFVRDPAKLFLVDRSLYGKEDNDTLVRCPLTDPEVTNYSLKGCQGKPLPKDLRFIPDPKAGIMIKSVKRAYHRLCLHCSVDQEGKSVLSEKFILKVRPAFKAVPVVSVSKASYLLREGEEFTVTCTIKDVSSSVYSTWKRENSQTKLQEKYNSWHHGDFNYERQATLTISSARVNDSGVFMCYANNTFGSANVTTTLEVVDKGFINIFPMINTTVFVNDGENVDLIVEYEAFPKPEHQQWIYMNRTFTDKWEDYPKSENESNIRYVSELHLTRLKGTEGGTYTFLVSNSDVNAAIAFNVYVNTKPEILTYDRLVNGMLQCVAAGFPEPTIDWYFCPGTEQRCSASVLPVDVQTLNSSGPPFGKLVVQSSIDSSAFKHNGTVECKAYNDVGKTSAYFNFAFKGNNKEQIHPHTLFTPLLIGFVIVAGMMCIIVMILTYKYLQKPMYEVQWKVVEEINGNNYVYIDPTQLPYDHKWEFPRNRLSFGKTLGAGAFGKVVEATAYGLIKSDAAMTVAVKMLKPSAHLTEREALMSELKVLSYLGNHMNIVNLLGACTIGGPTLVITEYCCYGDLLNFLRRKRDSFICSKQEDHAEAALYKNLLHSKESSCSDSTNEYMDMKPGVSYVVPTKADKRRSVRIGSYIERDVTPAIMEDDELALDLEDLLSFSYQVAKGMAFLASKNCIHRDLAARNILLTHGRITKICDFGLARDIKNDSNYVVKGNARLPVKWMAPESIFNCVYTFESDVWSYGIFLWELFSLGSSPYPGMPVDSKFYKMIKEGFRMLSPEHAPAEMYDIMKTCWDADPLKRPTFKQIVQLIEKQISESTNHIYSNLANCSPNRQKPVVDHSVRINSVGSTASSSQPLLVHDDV

Compound: CN1CCN(c2ccc(-c3cnc4[nH]cc(-c5oncc5-c5cccc(F)c5F)c4c3)cn2)CC1 [Compound 71, 3-[4-(2,3-Difluoro-phenyl)-isoxazol-5-yl]-5-[6-(4-methyl-piperazin-1-yl)-pyridin-3-yl]-1H-pyrrolo[2,3-b]pyridine]
Ki (c-KIT): < 200 nM
Ki (JAK3): < 200 nM
Ki (KDR): < 200 nM

Compound: Fc1cccc(-c2cnoc2-c2c[nH]c3ncc(-c4c[nH]cn4)cc23)c1F [Compound 76, 3-[4-(2,3-Difluoro-phenyl)-isoxazol-5-yl]-5-(3H-imidazol-4-yl)-1H-pyrrolo[2,3-b]pyridine]
Ki (c-KIT): < 200 nM
Ki (JAK3): < 200 nM
Ki (KDR): 200 to 1000 nM

Compound: COc1ccnc(-c2cnc3[nH]cc(-c4oncc4-c4cccc(F)c4F)c3c2)c1 [Compound 78, 3-[4-(2,3-Difluoro-phenyl)-isoxazol-5-yl]-5-(4-methoxy-pyridin-2-yl)-1H-pyrrolo[2,3-b]pyridine]
Ki (c-KIT): < 200 nM
Ki (JAK3): 200 to 1000 nM
Ki (KDR): < 200 nM

Compound: CN(C)Cc1ccnc(-c2cnc3[nH]cc(-c4oncc4-c4cccc(F)c4F)c3c2)c1 [Compound 82, (2-{3-[4-(2,3-Difluoro-phenyl)-isoxazol-5-yl]-1H-pyrrolo[2,3-b]pyridin-5-yl}-pyridin-4-ylmethyl)-dimethyl-amine]
Ki (c-KIT): < 200 nM
Ki (JAK3): < 200 nM
Ki (KDR): < 200 nM

Compound: CN(C)Cc1ccc(-c2cnc3[nH]cc(-c4oncc4-c4cccc(F)c4F)c3c2)nc1 [Compound 84, (6-{3-[4-(2,3-Difluoro-phenyl)-isoxazol-5-yl]-1H-pyrrolo[2,3-b]pyridin-5-yl}-pyridin-3-ylmethyl)-dimethyl-amine]
Ki (c-KIT): < 200 nM
Ki (JAK3): < 200 nM
Ki (KDR): < 200 nM

Compound: Fc1cccc(-c2cnoc2-c2c[nH]c3ncc(-c4cncnc4)cc23)c1F [Compound 85, 3-[4-(2,3-Difluoro-phenyl)-isoxazol-5-yl]-5-pyrimidin-5-yl-1H-pyrrolo[2,3-b]pyridine]
Ki (c-KIT): < 200 nM
Ki (JAK3): 200 to 1000 nM
Ki (KDR): 1000 to 12500 nM

Compound: CN(C)Cc1ccc(-c2cnc3[nH]cc(-c4oncc4-c4cccc(F)c4F)c3c2)cc1 [Compound 91, (4-{3-[4-(2,3-Difluoro-phenyl)-isoxazol-5-yl]-1H-pyrrolo[2,3-b]pyridin-5-yl}-benzyl)-dimethyl-amine]
Ki (c-KIT): < 200 nM
Ki (JAK3): < 200 nM
Ki (KDR): 200 to 1000 nM

Compound: Fc1cccc(-c2cnoc2-c2c[nH]c3ncc(-c4ccc(CN5CCOCC5)cc4)cc23)c1F [Compound 92, 3-[4-(2,3-Difluoro-phenyl)-isoxazol-5-yl]-5-(4-morpholin-4-ylmethyl-phenyl)-1H-pyrrolo[2,3-b]pyridine]
Ki (c-KIT): < 200 nM
Ki (JAK3): < 200 nM
Ki (KDR): 200 to 1000 nM

Compound: Fc1cccc(-c2cnoc2-c2c[nH]c3ncc(-c4ccc(CN5CCCC5)cc4)cc23)c1F [Compound 93, 3-[4-(2,3-Difluoro-phenyl)-isoxazol-5-yl]-5-(4-pyrrolidin-1-ylmethyl-phenyl)-1H-pyrrolo[2,3-b]pyridine]
Ki (c-KIT): < 200 nM
Ki (JAK3): < 200 nM
Ki (KDR): < 200 nM

Compound: CN1CCN(Cc2ccc(-c3cnc4[nH]cc(-c5oncc5-c5cccc(F)c5F)c4c3)cc2)CC1 [Compound 94, 3-[4-(2,3-Difluoro-phenyl)-isoxazol-5-yl]-5-[4-(4-methyl-piperazin-1-ylmethyl)-phenyl]-1H-pyrrolo[2,3-b]pyridine]
Ki (c-KIT): < 200 nM
Ki (JAK3): < 200 nM
Ki (KDR): < 200 nM

Compound: CC(=O)Nc1ccc(-c2cnc3[nH]cc(-c4oncc4-c4cccc(F)c4F)c3c2)cc1 [Compound 95, N-(4-{3-[4-(2,3-Difluoro-phenyl)-isoxazol-5-yl]-1H-pyrrolo[2,3-b]pyridin-5-yl}-phenyl)-acetamide]
Ki (c-KIT): < 200 nM
Ki (JAK3): < 200 nM
Ki (KDR): 200 to 1000 nM

Compound: COc1cncc(-c2cnc3[nH]cc(-c4oncc4-c4cccc(F)c4F)c3c2)c1 [Compound 96, 3-[4-(2,3-Difluoro-phenyl)-isoxazol-5-yl]-5-(5-methoxy-pyridin-3-yl)-1H-pyrrolo[2,3-b]pyridine]
Ki (c-KIT): < 200 nM
Ki (JAK3): < 200 nM
Ki (KDR): < 200 nM

Compound: Clc1cccc(-c2cnoc2-c2c[nH]c3ncc(-c4cccnc4)cc23)c1Cl [Compound 99, 3-[4-(2,3-Dichloro-phenyl)-isoxazol-5-yl]-5-pyridin-3-yl-1H-pyrrolo[2,3-b]pyridine]
Ki (c-KIT): < 200 nM
Ki (JAK3): < 200 nM
Ki (KDR): < 200 nM

Compound: COC(=O)c1cnc2[nH]cc(-c3oncc3-c3cccc(F)c3F)c2c1 [Compound 105, 3-[4-(2,3-Difluoro-phenyl)-isoxazol-5-yl]-1H-pyrrolo[2,3-b]pyridine-5-carboxylic acid methyl ester]
Ki (c-KIT): < 200 nM
Ki (JAK3): < 200 nM
Ki (KDR): 200 to 1000 nM

Compound: CN(C)c1ccc(-c2cnc3[nH]cc(-c4nncn4-c4cccc(F)c4F)c3c2)cc1 [Compound 106, (4-{3-[4-(2,3-Difluoro-phenyl)-4H-[1,2,4]triazol-3-yl]-1H-pyrrolo[2,3-b]pyridin-5-yl}-phenyl)-dimethyl-amine]
Ki (c-KIT): < 200 nM
Ki (JAK3): 200 to 1000 nM
Ki (KDR): 200 to 1000 nM

Compound: Fc1cccc(-n2cnnc2-c2c[nH]c3ncc(-c4ccc(CN5CCOCC5)cc4)cc23)c1F [Compound 109, 3-[4-(2,3-Difluoro-phenyl)-4H-[1,2,4]triazol-3-yl]-5-(4-morpholin-4-ylmethyl-phenyl)-1H-pyrrolo[2,3-b]pyridine]
Ki (c-KIT): < 200 nM
Ki (JAK3): 200 to 1000 nM
Ki (KDR): 200 to 1000 nM

Next, values leading:

Ki (c-KIT): < 200 nM
Ki (JAK3): < 200 nM
Ki (KDR): 1000 to 12500 nM
Compound: Fc1cccc(-c2cnoc2-c2c[nH]c3ncc(-c4ccccn4)cc23)c1F [Compound 73, 3-(4-(2,3-Difluoro-phenyl)-isoxazol-5-yl)-5-pyridin-2-yl-1H-pyrrolo[2,3-b]pyridine]

Ki (c-KIT): < 200 nM
Ki (JAK3): < 200 nM
Ki (KDR): < 200 nM
Compound: Fc1cccc(-c2cnoc2-c2c[nH]c3ncc(-c4cnc5[nH]ccc5c4)cc23)c1F [Compound 77, 3-[4-(2,3-Difluoro-phenyl)-isoxazol-5-yl]-1H,1′H-[5,5′]bi[pyrrolo[2,3-b]pyridinyl]]

Ki (c-KIT): < 200 nM
Ki (JAK3): < 200 nM
Ki (KDR): < 200 nM
Compound: Nc1ccnc(-c2cnc3[nH]cc(-c4oncc4-c4cccc(F)c4F)c3c2)c1 [Compound 83, 2-{3-[4-(2,3-Difluoro-phenyl)-isoxazol-5-yl]-1H-pyrrolo [2,3-b]pyridin-5-yl}-pyridin-4-ylamine]

Ki (c-KIT): < 200 nM
Ki (JAK3): < 200 nM
Ki (KDR): < 200 nM and 1000 to 12500 nM
Compound: Nc1cccc(-c2cnc3[nH]cc(-c4oncc4-c4cccc(F)c4F)c3c2)c1 [Compound 86, 3-{3-[4-(2,3-Difluoro-phenyl)-isoxazol-5-yl]-1H-pyrrolo [2,3-b]pyridin-5-yl}-phenylamine]

Ki (c-KIT): < 200 nM
Ki (JAK3): < 200 nM
Ki (KDR): 200 to 1000 nM
Compound: Oc1cccc(-c2cnc3[nH]cc(-c4oncc4-c4cccc(F)c4F)c3c2)c1 [Compound 87, 3-{3-[4-(2,3-Difluoro-phenyl)-isoxazol-5-yl]-1H-pyrrolo [2,3-b]pyridin-5-yl}-phenol]

Ki (c-KIT): < 200 nM
Ki (JAK3): < 200 nM
Ki (KDR): < 200 nM
Compound: CN(C)c1ccc(-c2cnc3[nH]cc(-c4oncc4-c4cccc(F)c4F)c3c2)cc1 [Compound 88, (4-{3-[4-(2,3-Difluoro-phenyl)-isoxazol-5-yl]-1H-pyrrolo[2,3-b]pyridin-5-yl}-phenyl)-dimethyl-amine]

Ki (c-KIT): < 200 nM
Ki (JAK3): < 200 nM
Ki (KDR): < 200 nM
Compound: Nc1ccc(-c2cnc3[nH]cc(-c4oncc4-c4cccc(F)c4F)c3c2)cc1 [Compound 90, 4-{3-[4-(2,3-Difluoro-phenyl)-isoxazol-5-yl]-1H-pyrrolo [2,3-b]pyridin-5-yl}-phenylamine]

— patent US7446199B2, “Compositions useful as inhibitors of protein kinases” (Vertex Pharmaceuticals Incorporated, priority 2003, dated 2008)
